# Test results reported in patent US10568921B1, “Extract of Vicia faba beans” (priority 2018, dated 2020).
# Several values for one entry are separate records, joined by “and”; a condition that tells them apart may be missing. Equal values may be shown once.
# System: strychnine-induced convulsions
# Assay: Strychnine-induced convulsions in mice, i.p. pretreatment with test substance
# Type: in vivo, BALB/c mice
# [1] = 50 mg/kg i.p. + strychnine 0.45 mg/kg i.p., individual mice No. 1-10
smiles,measurement,setting,value
"CCC1(c2ccccc2)C(=O)NC(=O)NC1=O [Phenobarbitone, phenobarbitone]",Survival recovered time after strychnine injection,[1],80 minutes (3×) and 90 minutes and 70 minutes (3×) and 75 minutes (3×)
same,Time to first convulsion,[1],5 minutes and 7 minutes (3×) and 6.5 minutes and 8 minutes (2×) and 9 minutes (2×) and 10 minutes
same,"Survival recovered time after strychnine injection, mean","50 mg/kg i.p. + strychnine 0.45 mg/kg i.p., mean of 10 mice",76.5 ± 5.58 min
same,Protection against strychnine-induced convulsions (in words),"50 mg/kg i.p. before strychnine (A-1 twenty minutes, phenobarbitone 15 minutes), mice","protected against the strychnine-induced convulsions, completely"
